The record followed here is patent US20260256705A1, “LIPID NANOPARTICLE FORMULATIONS FOR VACCINES” (GLOBAL LIFE SCIENCES SOLUTIONS CANADA ULC, priority 2022, published 2026).

The subject of this test is Luciferase mRNA. As to the kind of experiment: Intravenous protein replacement model, Luciferase mRNA LNP. The note with it: intravenous 0.1 mg/kg, four hours post administration. It counts as in vivo, mice. As to the method: Two different LNPs according to embodiments of the invention were injected into mice intravenously at 0.1 mg/kg. The payload was Luciferase·mRNA (Trilink-CLEANCAP™ FLuc mRNA (5 moU), Cat #L-7202). The top row of photographs in FIG. 8 showing fluorescence at four hours post administration was achieved by intravenous administration of LNP comprising PNI 516 30%, DPSC 56%, cholesterol 12.5% and DMG-PEG 1.5%. The bottom row in FIG. 8, which is brighter, was achieved by LNP comprising PNI 580 30%, DSPC 56%, cholesterol 12.5%, and DMG-PEG-1.5%.

With `CCCCCCCCC(CCCCCC)C(=O)O[C@@H]1[C@@H](OC(=O)C(CCCCCC)CCCCCCCC)CO[C@@H]1COC(=O)CCCN(C)C` (stereo partly drawn) [PNI 580, (2R,3S,4S)-2-(((4-(dimethylamino)butanoyl)oxy)methyl)tetrahydrofuran-3,4-diyl bis(2-hexyldecanoate)], the “protein expression in vivo (fluorescence)” value is on record as “slightly more effective”.
